Experimental data published in ChEMBL document CHEMBL1201862, “PubChem BioAssay data set” (2004).
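These data come from cells grown in 96-well plates and exposed to compound for 48 hours at five concentrations. GI50: concentration for 50% inhibition of growth.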 Activity calls are given as the source filed them. Rule as the data show it: active = GI50 up to about 1.1 µM and inactive = higher.

Experiments:
Experiment in all cases: DTP human tumour cell line panel, 48 h
SNB-19 = tested on: SNB-19
KM12 = tested on: KM12
SK-MEL-2 = tested on: SK-MEL-2
K562 = tested on: K562
MOLT-4 = tested on: MOLT-4
OVCAR-3 = tested on: OVCAR-3
UACC-257 = tested on: UACC-257
SK-OV-3 = tested on: SK-OV-3
SF-539 = tested on: SF-539
NCI-H522 = tested on: NCI-H522
HT-29 = tested on: HT-29
SK-MEL-28 = tested on: SK-MEL-28
HOP-92 = tested on: HOP-92
CCRF-CEM = tested on: CCRF-CEM
HCT-116 = tested on: HCT-116
NCI-H460 = tested on: NCI-H460
UACC-62 = tested on: UACC-62
HL-60 = tested on: HL-60
NCI-H226 = tested on: NCI-H226
SF-268 = tested on: SF-268

Structure (SMILES) | GI50 (SNB-19) | GI50 (KM12) | GI50 (SK-MEL-2) | GI50 (K562) | GI50 (MOLT-4) | GI50 (OVCAR-3) | GI50 (UACC-257) | GI50 (SK-OV-3) | GI50 (SF-539) | GI50 (NCI-H522) | GI50 (HT-29) | GI50 (SK-MEL-28) | GI50 (HOP-92) | GI50 (CCRF-CEM) | GI50 (HCT-116) | GI50 (NCI-H460) | GI50 (UACC-62) | GI50 (HL-60) | GI50 (NCI-H226) | GI50 (SF-268)
CC1C(=O)C(C)C(c2cccs2)N(N=O)C1c1cccs1 (stereo unspecified) | > 100 µM (inactive) | > 100 µM (inactive) | > 89.9 µM (inactive) | > 80.5 µM (inactive) | > 100 µM (inactive) | 9.27 µM (inactive) | > 100 µM (inactive) | > 56 µM (inactive) | > 100 µM (inactive) | 37.7 µM (inactive) | > 35 µM (inactive) | > 100 µM (inactive) | 68.5 µM (inactive) | > 100 µM (inactive) | > 100 µM (inactive) | > 100 µM (inactive) | > 100 µM (inactive) | > 100 µM (inactive) | > 100 µM (inactive) | > 100 µM (inactive)
COC(=O)c1cc2c(cc1CC(Cc1ccc3c(c1)CCC3)C(=O)OC)CCC2 (stereo unspecified) | > 100 µM (inactive) | 46.1 µM (inactive) | 44.1 µM (inactive) | 34.2 µM (inactive) | 26.9 µM (inactive) | > 100 µM (inactive) | 13.7 µM (inactive) | 60.1 µM (inactive) | 35 µM (inactive) | 22.2 µM (inactive) | 26.1 µM (inactive) | 84.1 µM (inactive) | 21 µM (inactive) | 29.1 µM (inactive) | 40.7 µM (inactive) | 65.5 µM (inactive) | > 100 µM (inactive) | 8.61 µM (inactive) | 7.24 µM (inactive) | 54.6 µM (inactive)
Clc1ccc(C(SCc2ccccc2)SCc2ccccc2)cc1 | > 10 µM (inactive) | > 10 µM (inactive) | > 10 µM (inactive) | > 10 µM (inactive) | > 10 µM (inactive) | > 10 µM (inactive) | > 10 µM (inactive) | > 10 µM (inactive) | > 10 µM (inactive) | > 10 µM (inactive) | > 10 µM (inactive) | > 10 µM (inactive) | > 10 µM (inactive) | > 10 µM (inactive) | > 10 µM (inactive) | > 10 µM (inactive) | > 10 µM (inactive) | > 10 µM (inactive) | > 10 µM (inactive) | > 10 µM (inactive)
CC(NC(=O)C(C)NC(=O)C(N)CCP(C)(=O)O)C(=O)O (stereo unspecified) | > 100 µM (inactive) | > 100 µM (inactive) | > 100 µM (inactive) | > 100 µM (inactive) | > 100 µM (inactive) | > 100 µM (inactive) | > 100 µM (inactive) | > 100 µM (inactive) | > 100 µM (inactive) | > 100 µM (inactive) | > 100 µM (inactive) | > 100 µM (inactive) | > 100 µM (inactive) | > 100 µM (inactive) | > 100 µM (inactive) | > 100 µM (inactive) | > 100 µM (inactive) | > 100 µM (inactive) | > 100 µM (inactive) | > 100 µM (inactive)
OC(c1cc(C(F)(F)F)nc2c(Cl)cc(Cl)cc12)C1CCCCN1 (stereo unspecified) | > 36.5 µM (inactive) | 6.3 µM (inactive) | > 23.3 µM (inactive) | 5.22 µM (inactive) | 6.38 µM (inactive) | 3.53 µM (inactive) |  | 12.3 µM (inactive) | 14 µM (inactive) | 7.53 µM (inactive) |  | 15.3 µM (inactive) | 7.26 µM (inactive) | 1.27 µM (inactive) | 13.6 µM (inactive) | 6.82 µM (inactive) | > 32.6 µM (inactive) | 5.82 µM (inactive) | 16.8 µM (inactive) | 16.8 µM (inactive)
Cc1nc2c(sc(=S)n2-c2ccccc2)c(=O)[nH]1 | > 100 µM (inactive) | > 100 µM (inactive) | > 100 µM (inactive) | > 100 µM (inactive) | > 100 µM (inactive) | > 100 µM (inactive) | > 100 µM (inactive) | > 100 µM (inactive) | > 100 µM (inactive) | > 100 µM (inactive) | > 100 µM (inactive) | > 100 µM (inactive) | > 100 µM (inactive) | > 100 µM (inactive) | > 100 µM (inactive) | > 100 µM (inactive) | > 100 µM (inactive) | > 100 µM (inactive) | > 100 µM (inactive) | > 100 µM (inactive)
CC(=O)O[C@@H]1[C@H]2[C@@H](OC(=O)c3ccccc3)[C@@H](C)C[C@]2(O)[C@H](OC(C)=O)[C@@]2(C)[C@@H]3C[C@@](C)(OC(C)=O)C[C@@H](OC(C)=O)[C@@]3(OC(C)=O)C[C@@]12C | > 10 µM (inactive) | > 10 µM (inactive) | > 10 µM (inactive) | > 10 µM (inactive) | > 10 µM (inactive) | > 10 µM (inactive) | > 10 µM (inactive) | > 10 µM (inactive) | > 10 µM (inactive) | > 10 µM (inactive) |  |  | > 10 µM (inactive) | > 10 µM (inactive) | > 10 µM (inactive) | > 10 µM (inactive) | > 10 µM (inactive) | > 10 µM (inactive) | > 10 µM (inactive) | > 10 µM (inactive)
COc1ccc(/C=C2\CCNC2=O)cc1 | > 100 µM (inactive) | > 100 µM (inactive) | > 100 µM (inactive) | > 100 µM (inactive) | > 100 µM (inactive) | > 100 µM (inactive) | > 100 µM (inactive) | > 100 µM (inactive) | > 76.6 µM (inactive) | > 100 µM (inactive) | > 100 µM (inactive) | > 100 µM (inactive) | > 100 µM (inactive) | > 100 µM (inactive) | > 100 µM (inactive) | > 100 µM (inactive) | > 100 µM (inactive) | > 100 µM (inactive) | > 100 µM (inactive) | > 100 µM (inactive)
COc1ccccc1Cc1nc(-c2ccccc2)nn(C2OC(COC(C)=O)C(OC(C)=O)C(OC(C)=O)C2OC(C)=O)c1=S (stereo unspecified) | 5.75 µM (inactive) | > 54.6 µM (inactive) | 11.3 µM (inactive) | > 58.3 µM (inactive) | > 60 µM (inactive) | 21.6 µM (inactive) | 54.3 µM (inactive) | 36.7 µM (inactive) | 9.14 µM (inactive) | 6.5 µM (inactive) | > 48.3 µM (inactive) | 49.2 µM (inactive) | 7.31 µM (inactive) | > 100 µM (inactive) | 10.1 µM (inactive) | > 43.9 µM (inactive) | 14.5 µM (inactive) | > 64.7 µM (inactive) | 30.5 µM (inactive) | 6.1 µM (inactive)
CCCCCCCCC(O)c1ccc(/C=C\C(O)CCCC(=O)O)s1 (stereo unspecified) | > 100 µM (inactive) | > 100 µM (inactive) | > 100 µM (inactive) | > 100 µM (inactive) | > 100 µM (inactive) | > 100 µM (inactive) | > 100 µM (inactive) | > 100 µM (inactive) | > 100 µM (inactive) | > 100 µM (inactive) | > 100 µM (inactive) | > 100 µM (inactive) | > 100 µM (inactive) | > 100 µM (inactive) | > 100 µM (inactive) | > 100 µM (inactive) | > 100 µM (inactive) | > 100 µM (inactive) | > 100 µM (inactive) | > 100 µM (inactive)
O=[N+]([O-])c1cccc2nc3ccccc3c(NCCNCCO)c12 | 0.0349 µM (active) | 0.0122 µM (active) | 0.00281 µM (active) | 0.00427 µM (active) | 0.00402 µM (active) | 0.00558 µM (active) | 0.0154 µM (active) | 0.0374 µM (active) | 0.0326 µM (active) | 0.00109 µM (active) | 0.00361 µM (active) | 0.047 µM (active) | 0.00365 µM (active) | 0.0158 µM (active) | 0.0197 µM (active) | 0.00184 µM (active) | 0.01 µM (active) | 0.0177 µM (active) | 0.0166 µM (active) | 0.00134 µM (active)
COC(=O)N/N=C(/CC1(O)C(=O)Nc2ccc([N+](=O)[O-])cc21)c1ccccc1 (stereo unspecified) | 38.9 µM (inactive) | 34.4 µM (inactive) | 31.2 µM (inactive) | 40.7 µM (inactive) | 24.5 µM (inactive) | 44.3 µM (inactive) | 42.4 µM (inactive) | 66.4 µM (inactive) | 38 µM (inactive) | 43.9 µM (inactive) | 31.4 µM (inactive) | 23.2 µM (inactive) | 33 µM (inactive) | 29.6 µM (inactive) | 24.1 µM (inactive) | 63.8 µM (inactive) | 24.7 µM (inactive) | 35 µM (inactive) | 40.9 µM (inactive) | 45.4 µM (inactive)
